According to patent US4156777A, “Process for producing glucopyranose-nitrosourea compounds and novel compounds included therein” (Tokyo Tanabe Company, Limited, priority 1977, dated 1979):
In brackets after ≈: the same amount, converted by molar mass.

Columns and labels:
leukemia L-1210 = test: Antitumor activity against leukemia L-1210 implanted in BDF1 mice (ILS, 60 days survivors); format: in vivo
Text: Test compounds were given to BDF1 mice 24 hrs after implantation of 10^6 cells of leukemia L-1210 in each animal, through single intraperitoneal administration, intraperitoneal administration for 5 successive days, single oral administration or oral administration for 5 successive days, whereupon the increase in life span (referred to as "ILS") and number of 60 days survivors of test animals were estimated, said test of antitumor activity being that according to the method of the National Cancer Center, Tokyo [A. Hoshi et al: Farmashia, 9 (1973), 464]. In the tests, the compounds were dissolved in physiological saline solution just before administration.
^a i.p.: intraperitoneal administration p.o: oral administration
D1 : single administration D1~5 : administration for 5
^b percentage calculated from mean survival time over control
^c survivors/six animals

Acute toxicity (LD50) = format: in vivo, male Wister rats; conditions: rat, in vivo, after 1 week
Protocol: Test compounds were dissolved in physiological saline solution just before their dosage and administered to male Wister rats, intraperitoneally, intravenously and orally. After 1 week, the LD50 of each compound was calculated from the mortality of the test animals by the Lichfield-Wilcoxon Method.
i.v.: intravenous administration

[1] = Diabetogenic activity (blood glucose concentration after intravenous administration); format: in vivo, male Wister rats
Protocol: 40-96 mg/kg of the test compounds were administered intravenously to starved male Wister rats weighing 240-260 g each, and the blood glucose concentrations of the test animals were estimated by the glucose exidase method [L. L. Saloman et al: Anal. Chem., 31 (1959), 453], in which test the compounds were dissolved in physiological saline solution just before administration. […]

[2] = known compounds, generally seen; cited from earlier work
[3] = Solubility in water at 25° C.; format: physicochemical; conditions: amount soluble in 1 ml water at 25° C.
[4] = Effect on respiration, blood pressure, heart rate and electrocardiogram; format: in vivo, Beagle dogs; conditions: dog, in vivo, iv; injected into brachial veins, anesthetized Beagle dogs; read-out: maximum dosage not effected on respiration, blood pressure, heart rate and electrocardiogram
Protocol: Beagle dogs of both sexes weighing about 10 kg were anesthetized with pentobarbital sodium (30 mg/kg, i.v.), and immobilized in the supine position. Test compounds dissolved in physiological saline solution were injected into the brachial veins of the animals and the arteries at cannulated positions were treated with heparin sodium as anticoagulant.
The respiration rate of each animal was estimated with a respirometer (Nihonkohden, RP-3) through a tracheal cannula, the blood pressure with an electro-haemodynamometer (Nihonkohden, MP-4T) attached surgically to the femoral artery, and the heart rate with a pulse-rate tachometer (Nihonkohden, RT-2) through the trigger pulse of the blood pressure.

[5] = 40 mg/kg i.v., 0 hr after treatment
[6] = 40 mg/kg i.v., 2 hr after treatment
[7] = 40 mg/kg i.v., 4 hr after treatment
[8] = 40 mg/kg i.v., 7 hr after treatment
[9] = 40 mg/kg i.v., 10 hr after treatment
[10] = 40 mg/kg i.v., 24 hr after treatment
[11] = 40 mg/kg i.v., 48 hr after treatment
[12] = 60 mg/kg i.v., 0 hr after treatment
[13] = 60 mg/kg i.v., 2 hr after treatment
[14] = 60 mg/kg i.v., 4 hr after treatment
[15] = 60 mg/kg i.v., 7 hr after treatment
[16] = 60 mg/kg i.v., 10 hr after treatment
[17] = 60 mg/kg i.v., 24 hr after treatment
[18] = 60 mg/kg i.v., 48 hr after treatment

SMILES: O=NN(CCCl)C(=O)N[C@H]1C(O)O[C@H](CO)[C@@H](O)[C@@H]1O (stereo partly drawn) [DCNU, 1-(2-chloroethyl)-3-(D-glucopyranos-2-yl)-1-nitrosourea]
- ILS (leukemia L-1210; 1.6 mg/kg/day, i.p. D1~5): > 143%
- Survivors (60 days) (leukemia L-1210; 1.6 mg/kg/day, i.p. D1~5): 1/6
- ILS (leukemia L-1210; 1.6 mg/kg/day, p.o. D1~5): -10%
- ILS (leukemia L-1210; 3.2 mg/kg/day, i.p. D1~5): > 407%
- Survivors (60 days) (leukemia L-1210; 3.2 mg/kg/day, i.p. D1~5): 3/6
- ILS (leukemia L-1210; 3.2 mg/kg/day, p.o. D1~5): 6%
- ILS (leukemia L-1210; 4.5 mg/kg/day, i.p. D1~5): > 406%
- Survivors (60 days) (leukemia L-1210; 4.5 mg/kg/day, i.p. D1~5): 3/6
- ILS (leukemia L-1210; 6.3 mg/kg/day, i.p. D1): > 265%
- Survivors (60 days) (leukemia L-1210; 6.3 mg/kg/day, i.p. D1): 3/6
- ILS (leukemia L-1210; 6.3 mg/kg/day, i.p. D1~5): > 622%
- Survivors (60 days) (leukemia L-1210; 6.3 mg/kg/day, i.p. D1~5): 5/6
- ILS (leukemia L-1210; 6.3 mg/kg/day, p.o. D1~5): 13%
- ILS (leukemia L-1210; 9.0 mg/kg/day, i.p. D1~5): > 153%
- Survivors (60 days) (leukemia L-1210; 9.0 mg/kg/day, i.p. D1~5): 1/6
- ILS (leukemia L-1210; 12.5 mg/kg/day, i.p. D1): > 418%
- Survivors (60 days) (leukemia L-1210; 12.5 mg/kg/day, i.p. D1): 4/6
- ILS (leukemia L-1210; 12.5 mg/kg/day, p.o. D1~5): 13%
- ILS (leukemia L-1210; 25.0 mg/kg/day, i.p. D1): > 315%
- Survivors (60 days) (leukemia L-1210; 25.0 mg/kg/day, i.p. D1): 3/6
- ILS (leukemia L-1210; 25.0 mg/kg/day, p.o. D1~5): 13%
- ILS (leukemia L-1210; 50.0 mg/kg/day, i.p. D1): -10%
- ILS (leukemia L-1210; 50.0 mg/kg/day, p.o. D1~5): 15%
- ILS (leukemia L-1210; 100.0 mg/kg/day, p.o. D1~5): 18%
- ILS (leukemia L-1210; 200.0 mg/kg/day, p.o. D1~5): -23%
- antitumor activity in oral administration, in words (leukemia L-1210; oral administration): no antitumor activity in oral administration
- LD50 at 168 h (Acute toxicity (LD50); ip): 44 mg/kg
- LD50 at 168 h (Acute toxicity (LD50); po): 1150 mg/kg
- Blood Glucose Concentration [1, 5]: 67.5 mg/dL
- Blood Glucose Concentration [1, 6]: 87.2 mg/dL
- Blood Glucose Concentration [1, 7]: 74.6 mg/dL
- Blood Glucose Concentration [1, 8]: 85.3 mg/dL
- Blood Glucose Concentration [1, 9]: 110.2 mg/dL
- Blood Glucose Concentration [1, 10]: 142.2 mg/dL
- Blood Glucose Concentration [1, 11]: 229.4 mg/dL
- Blood Glucose Concentration [1, 12]: 68.2 mg/dL
- Blood Glucose Concentration [1, 13]: 88.4 mg/dL
- Blood Glucose Concentration [1, 14]: 72.4 mg/dL
- Blood Glucose Concentration [1, 15]: 92.1 mg/dL
- Blood Glucose Concentration [1, 16]: 115.7 mg/dL
- Blood Glucose Concentration [1, 17]: 162.6 mg/dL
- Blood Glucose Concentration [1, 18]: 242.3 mg/dL
- Blood Glucose Concentration ([1]; 80 mg/kg i.v., 0 hr after treatment): 70.5 mg/dL
- Blood Glucose Concentration ([1]; 80 mg/kg i.v., 2 hr after treatment): 90.3 mg/dL
- Blood Glucose Concentration ([1]; 80 mg/kg i.v., 4 hr after treatment): 68.6 mg/dL
- Blood Glucose Concentration ([1]; 80 mg/kg i.v., 7 hr after treatment): 93.7 mg/dL
- Blood Glucose Concentration ([1]; 80 mg/kg i.v., 10 hr after treatment): 123.5 mg/dL
- Blood Glucose Concentration ([1]; 80 mg/kg i.v., 24 hr after treatment): 178.7 mg/dL
- Blood Glucose Concentration ([1]; 80 mg/kg i.v., 48 hr after treatment): 264.8 mg/dL
- diabetogenic activity, decreasing order [2]: SZ>DCNU>GANU> 2MCαG≈6MCαG
- solubility [3]: 40 mg/mL (≈ 128 mM)
- NOAEL [4]: 20 mg/kg

SMILES: CO[C@H]1O[C@H](CO)[C@@H](O)[C@H](O)[C@H]1NC(=O)N(CCCl)N=O [Example 2MCαG, 1-(2-chloroethyl)-3-(methyl α-D-glucopyranos-2-yl)-1-nitrosourea]
- ILS (leukemia L-1210; 0.5 mg/kg/day, i.p. D1~5): 15%
- ILS (leukemia L-1210; 1.0 mg/kg/day, i.p. D1~5): 48%
- ILS (leukemia L-1210; 2.0 mg/kg/day, i.p. D1~5): > 249%
- Survivors (60 days) (leukemia L-1210; 2.0 mg/kg/day, i.p. D1~5): 1/6
- ILS (leukemia L-1210; 2.0 mg/kg/day, p.o. D1~5): > 143%
- Survivors (60 days) (leukemia L-1210; 2.0 mg/kg/day, p.o. D1~5): 1/6
- ILS (leukemia L-1210; 3.2 mg/kg/day, i.p. D1~5): > 394%
- Survivors (60 days) (leukemia L-1210; 3.2 mg/kg/day, i.p. D1~5): 3/6
- ILS (leukemia L-1210; 3.2 mg/kg/day, p.o. D1~5): > 246%
- Survivors (60 days) (leukemia L-1210; 3.2 mg/kg/day, p.o. D1~5): 2/6
- ILS (leukemia L-1210; 4.0 mg/kg/day, i.p. D1~5): > 349%
- Survivors (60 days) (leukemia L-1210; 4.0 mg/kg/day, i.p. D1~5): 2/6
- ILS (leukemia L-1210; 6.3 mg/kg/day, i.p. D1): > 128%
- ILS (leukemia L-1210; 6.3 mg/kg/day, i.p. D1~5): > 198%
- Survivors (60 days) (leukemia L-1210; 6.3 mg/kg/day, i.p. D1~5): 1/6
- ILS (leukemia L-1210; 6.3 mg/kg/day, p.o. D1~5): > 380%
- Survivors (60 days) (leukemia L-1210; 6.3 mg/kg/day, p.o. D1~5): 3/6
- ILS (leukemia L-1210; 8.0 mg/kg/day, i.p. D1): > 432%
- Survivors (60 days) (leukemia L-1210; 8.0 mg/kg/day, i.p. D1): 3/6
- ILS (leukemia L-1210; 10.0 mg/kg/day, i.p. D1): > 717%
- Survivors (60 days) (leukemia L-1210; 10.0 mg/kg/day, i.p. D1): 6/6
- ILS (leukemia L-1210; 10.0 mg/kg/day, i.p. D1~5): > 190%
- Survivors (60 days) (leukemia L-1210; 10.0 mg/kg/day, i.p. D1~5): 1/6
- ILS (leukemia L-1210; 12.5 mg/kg/day, i.p. D1~5): > 160%
- Survivors (60 days) (leukemia L-1210; 12.5 mg/kg/day, i.p. D1~5): 1.6 survivors/six animals
- ILS (leukemia L-1210; 12.5 mg/kg/day, p.o. D1~5): > 211%
- Survivors (60 days) (leukemia L-1210; 12.5 mg/kg/day, p.o. D1~5): 2/6
- ILS (leukemia L-1210; 20.0 mg/kg/day, i.p. D1): > 717%
- Survivors (60 days) (leukemia L-1210; 20.0 mg/kg/day, i.p. D1): 6/6
- ILS (leukemia L-1210; 20.0 mg/kg/day, i.p. D1~5): 58%
- ILS (leukemia L-1210; 25.0 mg/kg/day, i.p. D1): > 539%
- Survivors (60 days) (leukemia L-1210; 25.0 mg/kg/day, i.p. D1): 4/6
- LD50 at 168 h (Acute toxicity (LD50); ip): 48 mg/kg
- LD50 at 168 h (Acute toxicity (LD50); po): 49 mg/kg
- Blood Glucose Concentration [1, 5]: 71.0 mg/dL
- Blood Glucose Concentration [1, 6]: 73.5 mg/dL
- Blood Glucose Concentration [1, 7]: 70.6 mg/dL
- Blood Glucose Concentration [1, 8]: 72.3 mg/dL
- Blood Glucose Concentration [1, 9]: 68.3 mg/dL
- Blood Glucose Concentration [1, 10]: 72.7 mg/dL
- Blood Glucose Concentration [1, 11]: 70.4 mg/dL
- Blood Glucose Concentration [1, 12]: 70.4 mg/dL
- Blood Glucose Concentration [1, 13]: 74.2 mg/dL
- Blood Glucose Concentration [1, 14]: 68.2 mg/dL
- Blood Glucose Concentration [1, 15]: 68.7 mg/dL
- Blood Glucose Concentration [1, 16]: 67.5 mg/dL
- Blood Glucose Concentration [1, 17]: 73.8 mg/dL
- Blood Glucose Concentration [1, 18]: 70.8 mg/dL
- blood glucose concentrations versus control, in words ([1]; i.v., rats): substantially the same blood glucose concentrations as that in the control
- diabetogenic activity, decreasing order [2]: SZ>DCNU>GANU> 2MCαG≈6MCαG
- solubility [3]: 45 mg/mL (≈ 137 mM)
- NOAEL [4]: 30 mg/kg
